From patent US20180305458A1, “METHODS AND PHARMACEUTICAL COMPOSITIONS FOR THE TREATMENT OF AUTOIMMUNE INFLAMMATORY DISEASES” (INSERM (INSTITUT NATIONAL DE LA SANTÉ ET DE LA RECHERCHE …, priority 2015, published 2018) come the findings set out here.

Format in all cases: in vivo
Test [1] deals with chronic pancreatitis mice model induced by cerulein. The experiment in a line: Cerulein-induced chronic pancreatitis mice model. Conditions: OxA 1.40 μmol/Kg 2 ip injections/week. An excerpt: FIG. 7. Pancreatic lymphocyte infiltration determined by immunostaining of CD45+ cells. Values were expressed as percentage of stained surface. **, p<0.01
FIG. 8. Amylase activity in blood samples of control mice, cerulein-induced mice and cerulein-induced mice treated with OxA. *, p<0.05; ***, p<0.001 and NS=non-significant.
We have investigated the effect of orexin A (OxA) on chronic pancreatitis mice model induced by supraphysiologic doses of cerulein (3 intraperitoneal injections/week at 100 μg/kg). […] In mice treated by OxA (2 intraperitoneal injections/week at 1.40 μmol/Kg) the lesions induced by cerulein improved. OxA-treated mice had lower number of acino-ductal metaplasia.

For test [2], the system named is EAE mice (C57BL/6 wild-type). The experiment in a line: EAE (MOG35-55 induced) clinical score in mice. To be noted: orexin A 100 or 300 μg per mouse for 5 days, IP or retro-orbital, before onset or at moderate EAE score, scale 0-5. On the procedure: FIG. 2. […] EAE was induced with 100 μg of MOG35-55 (Myelin Oligodendrocyte Glycoprotein 35-55) as previously described (Proc Natl Acad Sci USA. 106(6):2012-7, 2009) to 9 week old female C57BL/6 wild-type (WT) mice (n=10/group). Panels show clinical signs of EAE scored daily in a blinded fashion for over 30 days on a scale of 0-5 as follows: 0, no detectable clinical signs, 1, waddling gait with limp tail, 2, ataxia with full paralysis of one limb, 3, full paralysis of two limbs, 4, full paralysis of two limbs with important weight loss (>20% of initial weight) and 5, moribund or dead. Then, mice were given:
Panel A, intraperitoneally (IP) either PBS (group PBS IP), 100 μg of orexin A per mouse for 5 days on day 3 (=before the onset, group BOxA100 IP) or at a moderate EAE score (=1.5-2 for group OxA100 IP).
Panel B, intraperitoneally either PBS (group PBS), 100 μg (group OxA100 IP) or 300 μg (group OxA300 IP) of orexin A per mouse for 5 days at a moderate EAE score (=1.5-2).
Panel C, either PBS (group PBS), 300 μg of orexin A per mouse intraperitoneally (group OxA300 IP) or retro-orbitally (RO) (group OxA300 RO) for 5 days at a moderate EAE score (=1.5-2).
The EAE score is shown as mean+/−SEM. *P<0.05 (nonparametric t-test, compared to PBS group).
Orexin A ameliorates the DAI (weight and colitis score) of DSS-induced colitis mice. […]

The test system of a further test is DSS-induced colitis mice. The experiment in a line: DSS-induced colitis in mice, DAI score. Conditions: 5% DSS orally 7 days, OxA 0.22 μmoles/kg daily intraperitoneal, scale 0 to 4. An excerpt:
FIG. 1. Orexin A ameliorates the DAI (weight and colitis score) of DSS-induced colitis mice. Mice were orally treated with 5% DSS for 7 days in the presence or in the absence of daily intraperitoneal injection of OxA (0.22 μmoles/kg). DAI score including weight loss, severity of diarrhea, the presence of blood in the stool, inflammation and edema was estimated using a scale ranging from 0 (no symptoms) to 4 (severe colitis). DSS, dextran sulfate sodium; WT, wild type mice.
Orexin A ameliorates the DAI (weight and colitis score) of DSS-induced colitis mice. As shown in FIG. 1 when DSS-induced colitis mice were treated with OxA, the DAI score was ameliorated (about of 1.5). […] Therefore, orexin A presents potent intrinsic anti-inflammatory properties, capable of modulating the Th/Treg homeostasis during an auto-immune response as aggressive as in a chronic EAE model.

For the next test, the system named is regulatory T cell (Treg). Put plainly: Regulatory T cells in draining lymph nodes of EAE mice, flow cytometry. To be noted: day 30 post-immunization, OxA 300 μg IP or RO, vs PBS. On the procedure:
FIG. 5. […] On day 30 post-immunization, draining lymph nodes were harvested from the naïve, PBS, OxA300 RO, and OxA300 IP groups (FIG. 2, panel C). Assessment by flow cytometry was performed by using the mouse regulatory T cell staining kit: lymph node Tregs were defined as CD4^+CD25^+Foxp3^+ cells and proliferative Tregs as CD4^+CD25^+Foxp3^+Ki67^+ cells.
Histograms represent the mean of the percentage (left) and the total number (right) of Tregs and proliferative Tregs (Ki67^+Tregs) for each group. Bars represent the mean+/−SEM of 5 individual mice. *P<0.05 (non parametric t-test, compared to PBS group).
(In general: In flow cytometry, cells or beads pass a laser one at a time.)

Test [3] concerns IFNγ and IL-17 gene expression. The experiment in a line: Th1 (IFNγ) and Th17 (IL-17) cytokine gene expression in brain of EAE mice, RT-qPCR. To be noted: 30 days after EAE induction, OxA 300 μg IP or RO, vs PBS. On the procedure:
FIG. 4. […] It was determined 30 days after EAE induction of PBS, OxA300 RO, and OxA300 IP mice (from FIG. 2, panel C) by real time RT-qPCR as previously described (Proc Natl Acad Sci USA. 106(6):2012-7, 2009). *P<0.05 (nonparametric t-test, compared to PBS group).

The next test concerns EAE mice spinal cord. The experiment in a line: Spinal cord histopathology of EAE mice. To be noted: 30 days post-immunization, OxA 300 μg IP or RO, grading 0-4, vs PBS. On the procedure: FIG. 3. […] 30 days post-immunization, mice (from the PBS, OxA300 RO, and OxA300 IP groups of FIG. 2, panel C) were sacrificed and spinal cords were harvested, fixed overnight in 4% paraformaldehyde and stored in 70% ethanol. Spinal cords were then embedded in paraffin and cut in […] section. After haematoxylin/eosin (to distinguish cell infiltration) and luxol fast blue (to label myelin) staining, photography was performed at ×1.25 and ×10 magnifications for the spinal cord sections of PBS, OxA300 RO and OxA300 IP mice. […] Histopathology grading was as follows: 0-normal appearance, 1—some infiltrated cells and low demyelination, 2—2 or 3 infiltrated areas and low demyelination, 3—numerous infiltrated areas and strong demyelination, 4—important cell infiltration throughout the tissue with strong demyelination. *P<0.05 (nonparametric t-test, compared to PBS group).

Turning to “Orexin A: neuropeptide, endogenous ligand of OX1R and OX2R; SEQ ID NO:2 peplpdccrqk tcscrlyell hgagnhaagi ltlx”, the “lesions induced by cerulein (pancreas histology)” value in test [1] (3 weeks cerulein 100 μg/kg 3 ip injections/week) is “improved”. Moreover, in test [1] (cerulein mice), the “amylase activity in blood samples” value is recorded as “significantly reduced”. Also, in test [1] (cerulein mice), the “number of acino-ductal metaplasia” value was “lower number”. In test [1] (cerulein mice, quantitative imaging analysis, 18% in OxA-untreated mice), the “pancreatic lymphocyte infiltration (anti-CD45 immunohistochemistry)” value is listed as 6 % of the pancreatic surface. In test [1] (cerulein mice, quantitative imaging analysis, 40% in OxA-untreated mice), the “pancreatic fibrosis on Picrosirius staining” value is 12 % of the pancreatic surface. For the same substance, the “clinical features of EAE (EAE score)” value in test [2] is reported as “dramatically alleviate”; in test [2] (listed as orexin A) it was “significantly ameliorated”. The “DAI score (weight and colitis score)” value is recorded as “ameliorates” in the test with DSS-induced colitis mice and about 1.5 in the test with DSS-induced colitis mice (listed as OxA). Also, the “regulatory T cell (Treg) proportion” value in the test with regulatory T cell (Treg) is reported as “increased”; with regulatory T cell (Treg) (listed as orexin A), “increase”. The figures for the “Th1/Th17 pro-inflammatory responses (IFNγ, IL-17 gene expression) in CNS tissues” value in test [3] and in test [3] (listed as orexin A) were “efficiently suppresses” and “drastic reduction”, respectively. Further, the “histopathological EAE score” value in the test with EAE mice spinal cord is on record as “significantly decreases”; in the test on EAE mice spinal cord (listed as orexin A), “drastic reduction”.
